Tests used:
[1] = biological target: T1, B1R receptor of rats (rB1R) (Rattus norvegicus, UniProt P97583); assay: FLIPR Ca2+ assay (Fluo-4) on CHO K1 cells stably transfected with the B1R gene of rats; type: cell-based; conditions: CHO-K1; test substance 10 μM; agonist Des-Arg9-bradykinin 100 nM; % inhibition compared to the maximum achievable inhibition
T1 construct: host or cells: CHO K1 cells
T1 sequence (P97583 1-337): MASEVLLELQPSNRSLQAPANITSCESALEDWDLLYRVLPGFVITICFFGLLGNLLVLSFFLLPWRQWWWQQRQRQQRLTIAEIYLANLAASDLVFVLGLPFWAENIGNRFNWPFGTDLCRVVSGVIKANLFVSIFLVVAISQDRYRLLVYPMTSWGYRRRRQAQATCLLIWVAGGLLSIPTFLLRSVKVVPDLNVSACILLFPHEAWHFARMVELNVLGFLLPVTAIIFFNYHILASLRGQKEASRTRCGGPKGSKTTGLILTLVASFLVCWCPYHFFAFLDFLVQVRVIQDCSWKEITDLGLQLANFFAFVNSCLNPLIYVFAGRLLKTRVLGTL
Procedure, shortened: (§1)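 CHO K1 cells stably expressing human or rat B1R, Fluo-4 loaded, read by FLIPR (Ex 488/Em 540, peak fluorescence). Compound at 10 μM gives % activation vs agonist. After 10 min, agonist added (human: Lys-Des-Arg9-bradykinin 0.5 nM; rat: Des-Arg9-bradykinin 100 nM); % inhibition relative to maximal achievable inhibition.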

[2] = biological target: T2, human B1R receptor (hB1R) (Homo sapiens, UniProt P46663); assay: FLIPR Ca2+ assay (Fluo-4) on CHO K1 cells stably transfected with the human B1R gene; type: cell-based; conditions: CHO-K1; test substance 10 μM; agonist Lys-Des-Arg9-bradykinin 0.5 nM; % inhibition compared to the maximum achievable inhibition
T2 construct: host or cells: CHO K1 cells
T2 sequence (P46663 1-353): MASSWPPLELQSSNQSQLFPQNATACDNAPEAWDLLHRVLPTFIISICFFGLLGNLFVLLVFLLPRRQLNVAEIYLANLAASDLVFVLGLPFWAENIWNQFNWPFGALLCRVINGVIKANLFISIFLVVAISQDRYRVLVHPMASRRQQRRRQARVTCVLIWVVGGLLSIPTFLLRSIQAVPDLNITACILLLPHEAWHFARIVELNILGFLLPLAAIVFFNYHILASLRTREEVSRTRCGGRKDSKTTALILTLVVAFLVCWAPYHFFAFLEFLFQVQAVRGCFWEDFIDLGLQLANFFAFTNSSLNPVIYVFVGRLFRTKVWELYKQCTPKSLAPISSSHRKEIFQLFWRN
Procedure, shortened: as §1

inhibition at 10 µM [1] [%]	inhibition at 10 µM [2] [%]	SMILES
102	102	Cc1cc(C)c(S(=O)(=O)N2CCCCC2COCC(=O)N2CCn3c(CN(C)C)ccc3C2c2ccccc2)c(C)c1 (centres unmarked) [(46), 1-(6-((dimethylamino)methyl)-1-phenyl-3,4-dihydropyrrolo[1,2-a]pyrazin-2(1H)-yl)-2-((1-(mesitylsulfonyl)piperidin-2-yl)methoxy)ethanone]
99	95	COc1cc(C)c(S(=O)(=O)N2CCCCC2CCCC(=O)N2CCn3c(CCc4ccncc4)ccc3C2)c(C)c1 (centres unmarked) [(109), 4-(1-(4-Methoxy-2,6-dimethylphenylsulfonyl)piperidin-2-yl)-1-(6-(2-(pyridin-4-yl)ethyl)-3,4-dihydropyrrolo[1,2-a]pyrazin-2(1H)-yl)butan-1-one]
51	100	Cc1cc(S(=O)(=O)N2CCCCC2CCC(=O)N2CCn3c(CN4CCN(C)CC4)ccc3C2)c(C)cc1Cl (centres unmarked) [(5), 3-(1-(4-chloro-2,5-dimethylphenylsulfonyl)piperidin-2-yl)-1-(6-((4-methyl-piperazin-1-yl)methyl)-3,4-dihydropyrrolo[1,2-a]pyrazin-2(1H)-yl)propan-1-one]
75	50	O=C(CC1CCCCN1S(=O)(=O)c1cccc(C(F)(F)F)c1)N1CCn2c(CCCN3CCCC3)ccc2C1 (centres unmarked) [(17), 1-(6-(3-(pyrrolidin-1-yl)propyl)-3,4-dihydropyrrolo[1,2-a]pyrazin-2(1H)-yl)-2-(1-(3-(trifluoromethyl)phenylsulfonyl)piperidin-2-yl)ethanone]
103	98	CCC1c2cccn2CCN1C(=O)COCC1CCCCN1S(=O)(=O)c1c(C)cc(C)cc1C (centres unmarked) [(55), 1-(1-ethyl-3,4-dihydropyrrolo[1,2-a]pyrazin-2(1H)-yl)-2-((1-(mesitylsulfonyl)piperidin-2-yl)methoxy)ethanone]
102	103	COc1cc(C)c(S(=O)(=O)N2CCCCC2COCC(=O)N2CCn3c(CN4CCOCC4)ccc3C2c2ccccc2)c(C)c1 (centres unmarked) [(64), 2-((1-(4-methoxy-2,6-dimethylphenylsulfonyl)piperidin-2-yl)methoxy)-1-(6-(morpholinomethyl)-1-phenyl-3,4-dihydropyrrolo[1,2-a]pyrazin-2(1H)-yl)ethanone]
98	98	COc1cc(C)c(S(=O)(=O)N2CCCCC2COCC(=O)N2CCn3cccc3C2c2cccc(F)c2)c(C)c1 (centres unmarked) [(28), 1-(1-(3-fluorophenyl)-3,4-dihydropyrrolo[1,2-a]pyrazin-2(1H)-yl)-2-((1-(4-methoxy-2,6-dimethylphenylsulfonyl)piperidin-2-yl)methoxy)ethanone]
99	99	COc1cc(C)c(S(=O)(=O)N2CCCCC2COCC(=O)N2CCn3c(CCc4ccncc4)ccc3C2)c(C)c1 (centres unmarked) [(106), 2-((1-(4-Methoxy-2,6-dimethylphenylsulfonyl)piperidin-2-yl)methoxy)-1-(6-(2-(pyridin-4-yl)ethyl)-3,4-dihydropyrrolo[1,2-a]pyrazin-2(1H)-yl)ethanone]
103	102	COc1cc(C)c(S(=O)(=O)N2CCCCC2COCC(=O)N2CCn3c(CN(C)C)ccc3C2c2cccs2)c(C)c1 (centres unmarked) [(68), 1-(6-((dimethylamino)methyl)-1-(thiophen-2-yl)-3,4-dihydropyrrolo[1,2-a]pyrazin-2(1H)-yl)-2-((1-(4-methoxy-2,6-dimethylphenylsulfonyl)piperidin-2-yl)methoxy)ethanone]
52	87	CN1CCN(Cc2ccc3n2CCN(C(=O)CC2CCCCN2S(=O)(=O)c2cccc(C(F)(F)F)c2)C3)CC1 (centres unmarked) [(7), 1-(6-((4-methylpiperazin-1-yl)methyl)-3,4-dihydropyrrolo[1,2-a]pyrazin-2(1H)-yl)-2-(1-(3-(trifluoromethyl)phenylsulfonyl)piperidin-2-yl)ethanone]
102	100	Cc1cc(C)c(S(=O)(=O)N2CCCCC2COCC(=O)N2CCn3c(CN(C)C)ccc3C2Cc2ccccc2)c(C)c1 (centres unmarked) [(50), 1-(1-benzyl-6-((dimethylamino)methyl)-3,4-dihydropyrrolo[1,2-a]pyrazin-2(1H)-yl)-2-((1-(mesitylsulfonyl)piperidin-2-yl)methoxy)ethanone]
102	95	CCCC1c2cccn2CCN1C(=O)COCC1CCCCN1S(=O)(=O)c1c(C)cc(C)cc1C (centres unmarked) [(56), 2-((1-(mesitylsulfonyl)piperidin-2-yl)methoxy)-1-(1-propyl-3,4-dihydropyrrolo[1,2-a]pyrazin-2(1H)-yl)ethanone]
101	102	COc1cc(C)c(S(=O)(=O)N2CCCCC2COCC(=O)N2CCn3c(CN(C)C)ccc3C2c2ccccc2)c(C)c1 (centres unmarked) [(61), 1-(6-((dimethylamino)methyl)-1-phenyl-3,4-dihydropyrrolo[1,2-a]pyrazin-2(1H)-yl)-2-((1-(4-methoxy-2,6-dimethylphenylsulfonyl)piperidin-2-yl)methoxy)ethanone]
98	100	COc1cc(C)c(S(=O)(=O)N2CCCCC2COCC(=O)N2CCn3cccc3C2c2cccnc2)c(C)c1 (centres unmarked) [(21), 2-((1-(4-methoxy-2,6-dimethylphenylsulfonyl)piperidin-2-yl)methoxy)-1-(1-(pyridin-3-yl)-3,4-dihydropyrrolo[1,2-a]pyrazin-2(1H)-yl)ethanone]
100	95	COc1cc(C)c(S(=O)(=O)N2CCCCC2CCCC(=O)N2CCn3c(Cc4ccncc4)ccc3C2)c(C)c1 (centres unmarked) [(91), 4-(1-(4-Methoxy-2,6-dimethylphenylsulfonyl)piperidin-2-yl)-1-(6-(pyridin-4-ylmethyl)-3,4-dihydropyrrolo[1,2-a]pyrazin-2(1H)-yl)butan-1-one]
101	102	COc1cc(C)c(S(=O)(=O)N2CCCCC2COCC(=O)N2CCn3c(CN(C)C)ccc3C2CCc2ccccc2)c(C)c1 (centres unmarked) [(66), 1-(6-((dimethylamino)methyl)-1-phenethyl-3,4-dihydropyrrolo[1,2-a]pyrazin-2(1H)-yl)-2-((1-(4-methoxy-2,6-dimethylphenylsulfonyl)piperidin-2-yl)methoxy)ethanone]
101	102	COc1cc(C)c(S(=O)(=O)N2CCCCC2COCC(=O)N2CCn3c(CN4CCCC4)ccc3C2c2ccccc2)c(C)c1 (centres unmarked) [(62), 2-((1-(4-methoxy-2,6-dimethylphenylsulfonyl)piperidin-2-yl)methoxy)-1-(1-phenyl-6-(pyrrolidin-1-ylmethyl)-3,4-dihydropyrrolo[1,2-a]pyrazin-2(1H)-yl)ethanone]
101	100	COc1cc(C)c(S(=O)(=O)N2CCCCC2COCC(=O)N2CCn3c(CN4CCOCC4)ccc3C2)c(C)c1 (centres unmarked) [(6), 2-((1-(4-methoxy-2,6-dimethylphenylsulfonyl)piperidin-2-yl)methoxy)-1-(6-(morpholinomethyl)-3,4-dihydropyrrolo[1,2-a]pyrazin-2(1H)-yl)ethanone]
99	97	COc1cc(C)c(S(=O)(=O)N2CCCCC2COCC(=O)N2CCn3c(CCCN4CCN(C)CC4)ccc3C2)c(C)c1 (centres unmarked) [(14), 2-((1-(4-methoxy-2,6-dimethylphenylsulfonyl)piperidin-2-yl)methoxy)-1-(6-(3-(4-methylpiperazin-1-yl)propyl)-3,4-dihydropyrrolo[1,2-a]pyrazin-2(1H)-yl)ethanone]
102	102	COc1cc(C)c(S(=O)(=O)N2CCCCC2COCC(=O)N2CCn3c(CN4CCCC4)ccc3C2)c(C)c1 (centres unmarked) [(13), 2-((1-(4-methoxy-2,6-dimethylphenylsulfonyl)piperidin-2-yl)methoxy)-1-(6-(pyrrolidin-1-ylmethyl)-3,4-dihydropyrrolo[1,2-a]pyrazin-2(1H)-yl)ethanone]
101	105	COc1cc(C)c(S(=O)(=O)N2CCCCC2COCC(=O)N2CCn3c(CN4CCN(C)CC4)ccc3C2)c(C)c1 (centres unmarked) [(4), 2-((1-(4-methoxy-2,6-dimethylphenylsulfonyl)piperidin-2-yl)methoxy)-1-(6-((4-methylpiperazin-1-yl)methyl)-3,4-dihydropyrrolo[1,2-a]pyrazin-2(1H)-yl)ethanone]
98	96	Cc1cc(C)c(S(=O)(=O)N2CCCCC2COCC(=O)N2CCn3cccc3C2c2cccs2)c(C)c1 (centres unmarked) [(43), 2-((1-(mesitylsulfonyl)piperidin-2-yl)methoxy)-1-(1-(thiophen-2-yl)-3,4-dihydropyrrolo[1,2-a]pyrazin-2(1H)-yl)ethanone]
